The record followed here is US11053234B2 (GlaxoSmithKline Intellectual Property Development Limited, priority 2016, dated 2021).

Where only a bound is given, the exact number is not on record here.

T1 sequence (O60760 whole entry): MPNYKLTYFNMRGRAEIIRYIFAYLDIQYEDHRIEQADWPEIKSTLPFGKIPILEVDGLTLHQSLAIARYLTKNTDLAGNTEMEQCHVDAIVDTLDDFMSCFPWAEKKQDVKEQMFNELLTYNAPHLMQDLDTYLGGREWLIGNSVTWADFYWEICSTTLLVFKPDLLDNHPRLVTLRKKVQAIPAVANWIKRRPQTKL

The test concerns the target T1, haematopoietic prostaglandin D synthase (H-PGDS) (Homo sapiens, UniProt O60760).
T1 construct: Full length human H-PGDS cDNA (Invitrogen Ultimate ORF 10H13026) was amplified by PCR; 6-His (N); TEV protease cleavage site (N); made in house; host or cells: E. coli BL21 (DE3*), vector pET22b+
The test is described as follows: H-PGDS RapidFire high throughput mass spectrometry assay (conversion of PGH2 to PGD2). It is filed as biochemical. Particulars: 10 nM H-PGDS, PGH2 formed in situ by COX-2 from arachidonic acid; read-out: Potency Range (mean pIC50) (converted). Summed up:
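PGH2 substrate generated in situ by COX-2 (full-length human, FLAG-tagged, Sf9-expressed) from arachidonic acid at ˜10 μM, then converted by full-length human His-tagged H-PGDS (E. coli-expressed). RapidFire SPE–triple quadrupole MS measured PGD2 against PGF2α as substrate surrogate to give percent conversion.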
For `CS(=O)(=O)N1CCC(NC(=O)[C@H]2C[C@H](Oc3cccc4cccnc34)C2)CC1` [Example 219, (trans)-N-(1-(Methylsulfonyl)piperidin-4-yl)-3-(quinolin-8-yloxy)cyclobutanecarboxamide], the IC50 is 100 to 1000 nM. The same measure for `CC(C)(O)[C@H]1CC[C@H](NC(=O)[C@H]2C[C@H](Oc3cccc4c(Br)coc34)C2)CC1` [Example 269, (trans)-3-((3-Bromobenzofuran-7-yl)oxy)-N-((trans)-4-(2-hydroxypropan-2-yl)cyclohexyl)cyclobutanecarboxamide]: 10 to 79.4 nM.

Regarding `Cc1ccc(N2CC(NC(=O)N3CC(Oc4cc(F)cc5scnc45)C3)C2)nc1` [Example 232, 3-((6-Fluorobenzo[d]thiazol-4-yl)oxy)-N-(1-(5-methylpyridin-2-yl)azetidin-3-yl)azetidine-1-carboxamide], the IC50 was 10 to 79.4 nM.

`CC(C)(O)[C@H]1C[C@H](NC(=O)[C@H]2C[C@H](Oc3cc(F)cc4cccnc34)C2)C1` [Example 293, (trans)-3-((6-Fluoroquinolin-8-yl)oxy)-N-((trans)-3-(2-hydroxypropan-2-yl)cyclobutyl)cyclobutanecarboxamide]: the IC50 was 100 to 1000 nM. On to `CC(C)(O)[C@H]1CC[C@H](NC(=O)[C@H]2C[C@H](Oc3ccccc3Cl)C2)CC1` [Example 282, (trans)-3-(2-Chlorophenoxy)-N-((trans)-4-(2-hydroxypropan-2-yl)cyclohexyl)cyclobutanecarboxamide], for which the IC50 was 100 to 1000 nM. Consider `COc1ccc(F)cc1O[C@H]1C[C@H](C(=O)N[C@H]2CC[C@H](OCC(C)(C)O)CC2)C1` [Example 169, (trans)-3-(5-Fluoro-2-methoxyphenoxy)-N-((trans)-4-(2-hydroxy-2-methylpropoxy)cyclohexyl)cyclobutanecarboxamide], for which the IC50 was 10 to 79.4 nM.

Regarding `O=C(NC1CCCCC1)[C@H]1C[C@H](Oc2cccc3scnc23)C1` [Example 253], the IC50 was 100 to 1000 nM. The same measure for `COc1ccc(Cl)cc1O[C@H]1C[C@H](C(=O)N[C@H]2CC[C@H](C(C)(C)O)CC2)C1` [Example 275, (trans)-3-(5-Chloro-2-methoxyphenoxy)-N-((trans)-4-(2-hydroxypropan-2-yl)cyclohexyl)cyclobutanecarboxamide]: 10 to 79.4 nM; for `Cc1cnc(NC(=O)[C@H]2C[C@H](Oc3cccc4cccnc34)C2)o1` [Example 177, (trans)-N-(5-Methyloxazol-2-yl)-3-(quinolin-8-yloxy)cyclobutanecarboxamide]: 10 to 79.4 nM; for `O=C(Nc1nnc(C2CC2)s1)N1CC(Oc2cccc3scnc23)C1` [Example 333, 3-(Benzo[d]thiazol-4-yloxy)-N-(5-cyclopropyl-1,3,4-thiadiazol-2-yl)azetidine-1-carboxamide]: below 10 nM. The same measure for `CC(C)(O)[C@H]1CC[C@H](NC(=O)[C@H]2C[C@H](Oc3cc(F)cc(Cl)c3)C2)CC1` [Example 290, (trans)-3-(3-Chloro-5-fluorophenoxy)-N-((trans)-4-(2-hydroxypropan-2-yl)cyclohexyl)cyclobutanecarboxamide]: 100 to 1000 nM; for `Cc1csc(NC(=O)[C@H]2C[C@H](Oc3cccc4cccnc34)C2)n1` [Example 218, (trans)-N-(4-Methylthiazol-2-yl)-3-(quinolin-8-yloxy)cyclobutanecarboxamide]: 10 to 79.4 nM; for `CC(C)(C)c1nnc(NC(=O)N2CC(Oc3cccc4scnc34)C2)s1` [Example 332]: below 10 nM. The value for `CC(=O)c1csc(NC(=O)[C@H]2C[C@H](Oc3ccccc3OC(F)F)C2)n1` [Example 279] was 10 to 79.4 nM. Turning to `O=C(Nc1ncc(CO)s1)[C@H]1C[C@H](Oc2cc(F)ccc2OC(F)F)C1` [Example 12, (trans)-3-(2-(Difluoromethoxy)-5-fluorophenoxy)-N-(5-(hydroxymethyl)thiazol-2-yl)cyclobutanecarboxamide], the IC50 was 10 to 79.4 nM. For `CC(O)([C@H]1CC[C@H](NC(=O)[C@H]2C[C@H](Oc3cc(F)ccc3OC(F)F)C2)CC1)C(F)(F)F` (mixture of isomers) [Example 28, Racemic (trans)-3-(2-(Difluoromethoxy)-5-fluorophenoxy)-N-((trans)-4-(1,1,1-trifluoro-2-hydroxypropan-2-yl)cyclohexyl)cyclobutanecarboxamide], the IC50 was 10 to 79.4 nM. The same measure for `COc1ccc(Cl)cc1O[C@H]1C[C@H](C(=O)Nc2nc(C(C)=O)cs2)C1` [Example 274, (trans)-N-(4-Acetylthiazol-2-yl)-3-(5-chloro-2-methoxyphenoxy)cyclobutanecarboxamide]: below 10 nM; for `CC(C)(O)C1CC2(CC(NC(=O)[C@H]3C[C@H](Oc4cc(F)cc5scnc45)C3)C2)C1` (mixture of isomers) [Example 116, Racemic (trans)-3-((6-Fluorobenzo[d]thiazol-4-yl)oxy)-N-(6-(2-hydroxypropan-2-yl)spiro[3.3]heptan-2-yl)cyclobutanecarboxamide]: 10 to 79.4 nM. As for `O=C(NC1CN(c2ccccn2)C1)[C@H]1C[C@H](Oc2cc(F)ccc2OC(F)F)C1` [Example 18, (trans)-3-(2-(Difluoromethoxy)-5-fluorophenoxy)-N-(1-(pyridin-2-yl)azetidin-3-yl)cyclobutanecarboxamide], the IC50 was 10 to 79.4 nM. The same measure for `CC(C)(O)[C@H]1CC[C@H](NC(=O)[C@H]2C[C@H](Oc3cc(F)cc4ccoc34)C2)CC1` [Example 227, (trans)-3-((5-Fluorobenzofuran-7-yl)oxy)-N-((trans)-4-(2-hydroxypropan-2-yl)cyclohexyl)cyclobutanecarboxamide]: 10 to 79.4 nM; for `COc1ccc(F)cc1O[C@H]1C[C@H](C(=O)Nc2ncc(C(C)=O)s2)C1` [Example 164, (trans)-N-(5-Acetylthiazol-2-yl)-3-(5-fluoro-2-methoxyphenoxy)cyclobutanecarboxamide]: below 10 nM. Take `CC(C)(O)Cc1cnc(NC(=O)[C@H]2C[C@H](Oc3cccc4cccnc34)C2)s1` [Example 213, (trans)-N-(5-(2-Hydroxy-2-methylpropyl)thiazol-2-yl)-3-(quinolin-8-yloxy)cyclobutanecarboxamide]: the IC50 was 10 to 79.4 nM. The same measure for `CC(C)(C)c1csc(NC(=O)[C@H]2C[C@H](Oc3cccc4cccnc34)C2)n1` [Example 211, (trans)-N-(4-(tert-Butyl)thiazol-2-yl)-3-(quinolin-8-yloxy)cyclobutanecarboxamide]: 10 to 79.4 nM; for `O=C(NC1CN(c2ncccn2)C1)N1CC(Oc2cc(F)cc3scnc23)C1` [Example 129, 3-((6-Fluorobenzo[d]thiazol-4-yl)oxy)-N-(1-(pyrimidin-2-yl)azetidin-3-yl)azetidine-1-carboxamide]: 10 to 79.4 nM; for `O=C(NC12CC(Nc3ncccn3)(C1)C2)[C@H]1C[C@H](Oc2cccc3scnc23)C1` [Example 315, (trans)-3-(Benzo[d]thiazol-4-yloxy)-N-(3-(pyrimidin-2-ylamino)bicyclo[1.1.1]pentan-1-yl)cyclobutane-1-carboxamide]: 10 to 79.4 nM. The value for `CC(C)(O)[C@H]1CC[C@H](NC(=O)N2CC(Oc3cc(C(N)=O)cc4scnc34)C2)CC1` [Example 330, 4-((1-(((trans)-4-(2-Hydroxypropan-2-yl)cyclohexyl)carbamoyl)azetidin-3-yl)oxy)benzo[d]thiazole-6-carboxamide] was 10 to 79.4 nM.
